Laboratory results reported in article PMC12040169 (PLOS Biology, 2025).

Experiment: in vitro
Conditions: human, hela cells, % viability

| SMILES | viability at 28.5 h, 10 µM [%] | viability at 28.5 h, 10 µM (bulk resorufin, single well) [%] |
| --- | --- | --- |
| O=C(Cn1cnc2ccccc2c1=O)NCCc1ccsc1 [CBK287844] | 92.6 | – |
| CN(CC(=O)O)C(=O)c1ccc(S(=O)(=O)N2CCCC2)cc1 [CBK265724] | 91.8 | – |
| COC(=O)CC1(CC(=O)OC)C(=O)N(C)C(=O)N(C)C1=O [CBK268554] | – | 98.5 |
| FC(F)(F)c1cccc(SCc2ccc(Cl)cc2)n1 [CBK107197] | 91.9 | – |
| O=S(=O)(c1ccccc1)C1CCCCO1 (stereo not drawn) [CBK020284] | 91.3 | – |
| COc1ccc(-c2cccc(CC3(C(=O)NCc4cccs4)CCOCC3)c2)cc1 [CBK286514] | 88.5 | – |
| CCc1nc2c(N3CCCn4nc(C(O)C5CC5)cc4C3)ncnc2o1 (stereo not drawn) [CBK307543] | 78.6 | – |
| Cc1nn(CC(=O)N2CCC(C)CC2)c(=O)c2cc3ccsc3n12 [CBK284081] | 91.3 | – |
| CC(=O)Nc1cccc(NS(=O)(=O)c2ccc(N3CCNCC3)c3ccccc23)c1 [CBK028702C] | 105 | – |
| Cc1nc(C2CCCN(C(=O)C3CCCO3)C2)c2sccn12 (stereo not drawn) [CBK282241] | 106 | – |
| O=S(=O)(Nc1cccc(Br)c1)c1ccc(OC(F)(F)F)cc1 [CBK044369] | 114 | – |
| Cc1c(C(=O)O)sc2ncn(CCOc3ccc(Cl)cc3)c(=O)c12 [CBK286808] | 88.5 | – |
| Cc1nc2c(c(=O)[nH]1)CCN(C(=O)c1cc3c(s1)CCC3)C2 [CBK283751] | 105 | – |
| Cc1nc[nH]c1CN1CCCN(S(=O)(=O)c2ccc(-n3cnc(Cl)c3Cl)cc2)CC1 [CBK063087] | 91.7 | – |
| COc1ccc(-c2noc([C@@H]3C[C@H](NS(=O)(=O)Cc4ccccc4)CN3C)n2)cc1 [CBK288863] | 93.2 | – |
| CN1CCC(Oc2nc3cc(Cl)c(Cl)cc3nc2N2CCCC2)CC1 [CBK115290] | 82.2 | – |
| CC(Oc1ccc(Cl)cc1Cl)C(=O)NCCc1cccc(Cl)c1 (stereo not drawn) [CBK265489] | 84.2 | – |
| Cc1nn(Cc2cccc(C(N)=O)c2)c(C)c1Br [CBK022255] | 86.9 | – |
| O=C1NCCN/C1=C\C(=O)c1ccc(Br)cc1 [CBK261427] | 90.2 | – |
| O=C(c1cccnc1)C1CCN(C(=O)Cc2ccccc2Cl)CC1 [CBK283690] | 90.3 | – |
| CC(C)C(=O)Nc1c(-c2ccsc2)cnc2ncccc12 [CBK083714] | 88.7 | – |
| CN1CCN(CCCNC(=O)c2ccc(-c3ccoc3)nc2)CC1 [CBK156257] | 93.3 | – |
| O=C(CSc1ncccn1)N/N=C/c1ccncc1 [CBK262401] | 103 | – |

| SMILES | viability at 28.5 h, 10 µM [%] | viability at 28.5 h, 10 µM (bulk resorufin, single well) [%] |
| --- | --- | --- |
| CN(CC(=O)N(C)CC(F)(F)F)Cc1cccnc1 [CBK282075] | 89.1 | – |
| O=C(O)CCC(=O)Nc1ccccc1NC(=O)c1ccc(C(F)(F)F)cc1 [CBK265770] | 102 | – |
| CCC1(C)CC(=O)c2cc(NC(=O)N3CCc4n[nH]cc4C3)ccc2O1 (stereo not drawn) [CBK306846] | 90.3 | – |
| O=C(O)CCCOc1nc(C2CC2)cc(C(F)(F)F)n1 [CBK286886] | 92 | – |
| O=c1c2ccccc2c(-c2ccc(Cl)cc2)nn1-c1cc(N2CCNCC2)ccc1[N+](=O)[O-] [CBK265763] | 98.7 | – |
| Cc1c(C(=O)N2CCn3c(C)nnc3C2)sc2cccc(F)c12 [CBK304923] | 87.5 | – |
| COCC(C)NC(=O)Cn1cccc2cc(C(F)F)nc1-2 (stereo not drawn) [CBK285011] | 104 | – |
| CC(C)CN1CCCN(S(=O)(=O)c2ccc(C(F)(F)F)cc2Cl)CC1 [CBK062943] | 86.5 | – |
| CN1CCN(CCC(=O)N2CCN(c3ncccn3)CC2)CC1 [CBK144520] | 84.5 | – |
| NCc1ccc(CN(Cc2ccc(-c3ccccc3)cc2)C(=O)Nc2ccccc2C(F)(F)F)cc1 [CBK046116C] | 86.3 | – |
| Cc1cc2c(cc3c(=O)n(CC(=O)N4CCCCC4)nc(C)n32)o1 [CBK283630] | 83.4 | – |
| NS(=O)(=O)c1ccc(CCNC(=O)/C=C/c2ccccc2Cl)cc1 [CBK264379] | 94 | – |
| Cc1c(C(=O)N2CCCCC2C(N)=O)nnn1-c1cccc(Cl)c1 (stereo not drawn) [CBK305490] | 106 | – |
| CN1CCN(CCOC(=O)N2CCN(c3cccc(C(F)(F)F)c3)CC2)CC1 [CBK115940C] | 103 | – |
| COc1ccc(Oc2nccnc2N2CCN(CCCC#N)CC2)cc1OC [CBK083056T] | 95.5 | – |
| CS(=O)(=O)Nc1ccccc1C(=O)NCCCN1CCOCC1 [CBK269745] | 112 | – |
| O=C(CCc1c[nH]c2ccccc12)OCc1nnc(-c2ccccc2)o1 [CBK269642] | 101 | – |
| CC(C)NC(=O)N1CCN2C(=O)N(c3ccccc3)C(=O)[C@@H]2C1 [CBK289579] | 99.4 | – |
| Cc1c[nH]c(CN(C)C(=O)c2cccc(NC(=O)C3CCCC3)c2)n1 [CBK307282] | 91.4 | – |
| CN(C)C(=O)c1ccc(-c2ccc3c(c2)OC(C2CCN(C(=O)OCc4ccccc4)CC2)OC3)cc1 (stereo not drawn) [CBK144649] | 85.5 | – |
| O=c1oc2ccc(Cl)cc2n1C1CCN(Cc2ccco2)CC1 [CBK284342] | 102 | – |
| Cc1cc(C(=O)N2CCCc3ccccc32)n[nH]1 [CBK200346] | 92 | – |
| C=CCNCc1cc2c(C)nn(-c3ccccc3)c2[nH]c1=O [CBK282898] | 88.7 | – |

| SMILES | viability at 28.5 h, 10 µM [%] | viability at 28.5 h, 10 µM (bulk resorufin, single well) [%] |
| --- | --- | --- |
| CC(OC(=O)N1CCN(c2ccccc2)CC1)c1ccccc1 (stereo not drawn) [CBK200243] | 104 | – |
| Cc1cc(OC(C)C(=O)Nc2ncccc2C)ccc1Cl (stereo not drawn) [CBK269637] | 78.4 | – |
| O=C1CC(c2ccc(C(=O)O)cc2)c2c(-c3ccc(Cl)cc3)n[nH]c2N1 (stereo not drawn) [CBK286684] | 97 | – |
| CN(C)S(=O)(=O)c1ccc2c(c1)nc1n2CCC1 [CBK115558] | 71.4 | – |
| CCC1CCc2c(sc(NC(=O)C3C4CCC(C4=C(C)C)C3C(=O)O)c2C(=O)OC)C1 (stereo not drawn) [CBK265424] | 102 | – |
| CC1CCCCC1NC(=O)c1ncoc1-c1cccs1 (stereo not drawn) [CBK283973] | 84.8 | – |
| COc1cc(CNC(=O)c2cccc(-c3ccc(OC4CCNCC4)cc3)n2)cc(OC)c1OC [CBK126550T] | 87.1 | – |
| Cn1nc2c(c1C(=O)N1CCc3[nH]c4ccccc4c3C1)CCCC2 [CBK281844] | 79.7 | – |
| O=C(O)CCC(=O)NCCCc1ccccc1 [CBK265465] | 86.7 | – |
| CN1CCN(C(=O)CCn2c(C(F)F)cc3cccnc32)CC1 [CBK285023] | 101 | – |
| Cn1ccnc1CN1C(=O)CO[C@H]2CN(c3ncccn3)C[C@H]21 [CBK289704] | 98.3 | – |
| OCC(O)CN1CCCC1 (stereo not drawn) [CBK015457] | 114 | – |
| CN(C)C(=O)c1ccc(-c2ncc(OCCN3CCCC3=O)nc2N)cc1 [CBK145184] | 97.5 | – |
| Cc1cc(C)n(C2CCN(Cc3nc4ccccc4[nH]3)CC2)n1 [CBK281620] | 103 | – |
| OCc1cccc(-c2cncc(Nc3ccccc3)n2)c1 [CBK065576] | 97.4 | – |
| COc1ccc2nc(Nc3nc(-c4cccnc4)cs3)sc2c1 [CBK287482] | 89.1 | – |
| COc1ccc(CC(=O)NNC(=O)Nc2ccc(Cl)c(Cl)c2)cc1 [CBK262652] | 92.6 | – |
| CCN1C(=O)C2(CC(=O)N(Cc3ccccc3)C2=O)c2cc(Cl)ccc21 (stereo not drawn) [CBK075233] | 99.1 | – |
| Cc1ccc(S(=O)(=O)Nc2sc3c(c2C(=O)N2CCN(C)CC2)CCCC3)cc1[N+](=O)[O-] [CBK028650] | 93.9 | – |
| C=CCNC(=O)N[C@H]1[C@H](O)[C@@H](N2CCC(C(=O)OC)CC2)[C@@H]2OC[C@H]1O2 [CBK288807] | 82.1 | – |
| COc1cccc(CNCC2CCCO2)c1OCc1ccccc1 (stereo not drawn) [CBK269798C] | 105 | – |
| CC(C)Cn1cncc1CNS(=O)(=O)c1cccc(C(=O)N2CCC2)c1 [CBK307068] | 90.3 | – |
| C=CCn1c(Cc2csc(NC(=O)c3ccc(C)cc3)n2)n[nH]c1=S [CBK295292] | 96.4 | – |

| SMILES | viability at 28.5 h, 10 µM [%] | viability at 28.5 h, 10 µM (bulk resorufin, single well) [%] |
| --- | --- | --- |
| O=S(=O)(Oc1ccc(-c2cnc3ccccc3n2)cc1)c1ccccc1 [CBK261104] | 93.4 | – |
| O=C1C2(c3ccccc3)CN(CCCO)CC1(c1ccccc1)CN(CCCO)C2 [CBK265912] | 109 | – |
| c1ccc(CN2CCN(Cc3ccccc3)C2c2ccc[nH]2)cc1 [CBK261283] | 82.9 | – |
| O=C(NCCN1CCOCC1)C1CC2CCC1C2 (stereo not drawn) [CBK026764] | 115 | – |
| C[C@@H]1CNCCN1c1nccnc1OCCOc1cccnc1OCCN [CBK040757T] | 88.8 | – |
| CSc1cccc(NC(=O)Nc2ccc3c(c2)OCCO3)c1 [CBK300527] | 104 | – |
| Cc1sc(NC(=O)c2cc(-c3ccncc3)nc3ccc(Cl)cc23)c(C#N)c1C [CBK267742] | 87.7 | – |
| CC(C)(C)NC(=O)Cn1c(-c2cccs2)cc2cccnc21 [CBK282455] | 97.1 | – |
| Cc1ccc2c(C)c(-c3cncn3C(C)CN3CCOCC3)oc2c1 (stereo not drawn) [CBK281796] | 107 | – |
| CCCCOc1ccc(-c2nnn(CC(=O)Nc3ccccc3)n2)cc1 [CBK070609] | 90.2 | – |
| O=C(O)c1c[nH]nc1-c1ccc(Br)cc1 [CBK266368] | 91.5 | – |
| NC(=O)CCN1CCCC2(CCN(C(=O)c3ccoc3)C2)C1 (stereo not drawn) [CBK132816] | 96.9 | – |
| Cc1ccc(C(=O)C(OC(=O)c2cc(O)nc3ccccc23)c2ccccc2)cc1C (stereo not drawn) [CBK265515] | 90.9 | – |
| Cc1cc(C)n(CCN2CCC(N(C)Cc3nnc(C)n3C)C2)n1 (stereo not drawn) [CBK304449] | 94.3 | – |
| O=C(Cc1csc(-c2ccc(Cl)cc2)n1)Nc1ccccn1 [CBK107364] | 85.8 | – |
| O=C(O)[C@@H]1CCCN1C(=O)C1CCC(Cn2nnc3ccccc3c2=O)CC1 (stereo partly drawn) [CBK286658] | 88.6 | – |
| Cc1ccc(C2(CN3CCN(Cc4cnc(C)n4C)CC3)CC2)cc1 [CBK282469] | 93.5 | – |
| Cc1nc2ccccn2c1CC(=O)N1CCCC(c2ccc(Cc3cccc(F)c3)cn2)C1 (stereo not drawn) [CBK286002] | 91.3 | – |
| CC(C)NC1=NC(=O)C(CC(=O)Nc2ccccc2)S1 (stereo not drawn) [CBK013880] | 90.7 | – |
| COc1cc2c(cc1OC)C(CCN)=NCC2 [CBK023947C] | 86.6 | – |
| CCn1cc(Br)c(C(=O)Nc2nccs2)n1 [CBK265890] | 96.8 | – |
